Experimental data as given in patent publication US20210009551A1, “COMPOUNDS AND METHODS FOR TREATING FIBROSIS OR CANCER” (THE REGENTS OF THE UNIVERSITY OF CALIFORNIA, priority 2016, published 2021).

Legend:
[1] = test system: TGFβ1-induced epithelial-mesenchymal transition (EMT) in A549 adenocarcinoma cells; assay: TGFβ1-induced EMT in A549 cells (image-based screen, immunoblot); type: cell-based
Protocol: High throughput screen and high content imaging analysis. A549 cell-based screening of inhibitors to TGFβ1-induced EMT from a bioactive small molecule library was performed in 384-well plate format and the images were captured and analyzed using GE IN Cell 2000 as described previously^16.
(§1) Immunoblot. Pulverized tissue and cells were lysed in RIP A buffer (150 mM NaCl, 50 mM Tris, pH 8.0, 1% Triton X-100, 0.5% sodium deoxycholate, 0.1% SDS, supplemented with protease and phosphatase inhibitors) and analyzed by immunoblotting. Densitometry was quantified using NIH Imaged software.

[2] = test system: C57BL/6 mice, intratracheal bleomycin; assay: Bleomycin fibrosis model; type: in vivo; settings: daily gavage 100 mg/kg from day 10 after bleomycin, day 21
Protocol: For histological assessment of lung collagen, frozen sections of the left lung were stained using Masson's Trichrome stain kit (American MasterTech, Lodi, Calif., USA).
Bleomycin fibrosis model. Eight-week old C57BL/6 mice were intratracheally instilled with saline or 1.9 units/kg of bleomycin (Sigma-Aldrich). Mice were implanted with osmotic pumps loaded with ellagic acid salt (24 mg/kg/day, Day 10-Day 17), fed with red raspberry diet (Day 0-Day 21), or gavaged with corilagin (100 mg/kg, Day 10-Day 21). Controls were treated with control pump, control diet, or vehicle in the same formulation. The lungs were lavaged and followed by OCT embedding for imaging or snap freezing in liquid nitrogen for protein extraction or hydroxyproline assay.
Collagen content Lung or aorta collagen content was evaluated using hydroxyproline assay. Briefly, whole left lung tissue or aorta was hydrolyzed in 1 ml 12N HCl at 110° C. for 24 h and the hydroxyproline was detected by incubating with Chloramine T and p-dimethylaminobenzaldehyde and the absorbance was measured at 550 nm. Each sample was run in triplicate. Collagen content in lung or aorta tissues was expressed as micrograms of collagen per lung or aorta and was converted from micrograms of hydroxyproline.

human LOXL2 [3] = biological target: T1, human LOXL2 (Homo sapiens, UniProt Q9Y4K0); assay: Collagen crosslinking induced by recombinant LOXL2 in lung fibroblasts (Sircol assay); type: cell-based; settings: primary human lung fibroblasts, 7 days
T1 sequence (Q9Y4K0 26-774): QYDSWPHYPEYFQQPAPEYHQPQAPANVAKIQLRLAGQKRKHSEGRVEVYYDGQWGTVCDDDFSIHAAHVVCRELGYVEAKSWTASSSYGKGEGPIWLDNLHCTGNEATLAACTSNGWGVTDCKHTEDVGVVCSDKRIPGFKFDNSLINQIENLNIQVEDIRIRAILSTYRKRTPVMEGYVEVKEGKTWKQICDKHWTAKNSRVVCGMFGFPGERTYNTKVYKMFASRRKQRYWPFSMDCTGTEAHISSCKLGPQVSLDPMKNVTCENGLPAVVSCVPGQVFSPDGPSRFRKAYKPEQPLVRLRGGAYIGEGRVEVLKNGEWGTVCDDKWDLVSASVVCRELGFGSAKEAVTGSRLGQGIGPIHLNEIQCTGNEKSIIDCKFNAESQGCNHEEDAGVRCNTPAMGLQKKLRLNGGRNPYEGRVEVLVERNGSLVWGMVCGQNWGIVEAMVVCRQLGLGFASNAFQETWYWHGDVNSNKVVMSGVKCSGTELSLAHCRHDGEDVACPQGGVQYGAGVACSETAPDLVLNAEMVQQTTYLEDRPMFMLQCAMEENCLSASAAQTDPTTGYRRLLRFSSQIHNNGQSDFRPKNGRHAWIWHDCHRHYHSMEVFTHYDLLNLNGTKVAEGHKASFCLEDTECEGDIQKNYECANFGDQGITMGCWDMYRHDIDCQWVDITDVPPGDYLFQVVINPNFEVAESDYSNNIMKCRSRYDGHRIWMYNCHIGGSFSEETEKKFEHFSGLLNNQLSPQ
Protocol: Preparation of insoluble cross-linked collagen. Fibroblasts were cultured on 10 cm dish until confluent. The medium was then changed to Dulbecco's modified Eagle's medium (DMEM) containing 5% FBS, 100 μM L-ascorbic acid with 500 kDa Dextran Sulfate at 100 μg/ml, and 50 ng/ml recombinant human LOXL2 (rhLOXL2) for 7 days^21,22. The cell layer was extracted with 0.5 M acetic acid and 0.1 mg/ml pepsin overnight at 4° C. The leftover insoluble fraction was further extracted and the insoluble cross-linked collagen measured using Sircol Insoluble Collagen Assay kit according to manufacture's instruction.

human LOXL2 [4] = biological target: T1, human LOXL2; assay: LOX activity assay (H2O2 release, fluorimetric); type: biochemical; settings: 1 h incubation, read-out: IC50 of LOXL2 enzymatic activity toward a model substrate
Protocol: (§2) LOX activity assay LOX activity of recombinant human LOXL2 or conditioned medium collected from cells expressing LOXL2 was measured using a Fluorimetric Lysyl Oxidase Activity Assay Kit (Abeam, Cambridge, Mass.) following a protocol provided by the manufacturer. Briefly, 50 μl of sample was mixed with an equal volume of assay reaction mixture containing LOX substrate, horseradish peroxidase (HRP) and HRP substrate in the presence and absence of testing inhibitors and D-penicillamine (DPA), a LOX inhibitor. The mixture was incubated for 30 min at 37° C. in darkness. The fluorescence increase was then measured with a fluorescence plate reader (BMG Lab Tech FLUOstar) at Ex/Em=540/590 nm. Sample buffer or medium alone without LOXL2 was used for determination of the background fluorescence.

[5] = test system: urinary DPD/PYD after bleomycin; assay: Urinary PYD/DPD measurements; type: in vivo, mice; settings: 100 mg/kg from day 10
Protocol: Urinary PYD/DPD measurements. Pooled urine from each of 3-5 mice for each time point after bleomycin in a cohort of mice treated with vehicle or corilagin (100 mg/kg) beginning on day 10 post bleomycin were collected. Urine specimens were also collected from two cohorts of IPF patients and controls at two sites: All consenting patients with physician-established diagnosis of IPF followed in the respective ILD programs were included in sample collection. PYD/DPD levels from all the samples were measured using MicroVue EIA Assay Kit (Quidel Corp., San Diego, Calif.) along with PYD/DPD standards and the results were normalized relative to urinary creatinine. The statistical significance was analyzed using Mann-Whitney U-Test.

EGFR = assay: EGF signaling through EGFR (immunoblot); type: cell-based; settings: 1 μM, 6 h pre-treatment, A549 and MDA-MB-231 cells
Protocol: as §1

[6] = biological target: T2, wild-type or mutant human LOXL2 (Homo sapiens, UniProt Q9Y4K0); assay: LOX activity of conditioned media from NMuMG cells expressing wild-type or mutant LOXL2; type: cell-based; settings: 1 μM, 6 h, K614N, K759R, all except the K731 mutant
T2 construct: Flag (C); expressed in transfected cells; host or cells: NMuMG cells, conditioned medium
T2 sequence (Q9Y4K0 26-774): T1 sequence (Q9Y4K0 26-774)
Protocol: as §2
Site-directed mutagenesis of LOXL2. Site-directed mutagenesis was performed to generate K614N, K731R, and K759R point mutations using Phusion Site-Directed Mutagenesis Kit (Thermo Scientific, Waltham, Mass.) according to manufacturer's instructions. A pcDNA3-hLOXL2-flag plasmid containing the cDNA fragment of wild-type human LOXL2 fused with a flag tag at the C-terminus, was used as the template DNA^18. Mutations were confirmed by DNA sequencing. […]

Solubility (statement) = type: physicochemical
human LOXL2 [7] = biological target: T1, human LOXL2; assay: LOXL2-induced stabilization of snail 1 protein in NMuMG cells; type: cell-based; set-up: Flag (C); expressed in transfected cells; host or cells: NMuMG cells; settings: 0.5 μM, 24 h
Protocol: as §1

## O=C(O[C@@H]1O[C@@H]2COC(=O)c3cc(O)c(O)c(O)c3-c3c(cc(O)c(O)c3O)C(=O)O[C@H]([C@H]1O)[C@@H]2O)c1cc(O)c(O)c(O)c1 [corilagin, Corilagin]
[1]; Homo sapiens, A549 cells stimulated with TGFβ1, 48 h
  IC50: 50 nM
[1]; LOXL2 RNAi, A549 cells, 1 μM
  inhibitory effects on EMT after knockdown of LOXL2: completely abrogated
[2]
  bleomycin-induced total lung collagen, fibronectin, snail 1, and p-smad3: marked attenuation
Human LOXL2 [3]
  IC50: 10 nM
Human LOXL2 [4]
  IC50: 50 nM
[5]
  increase of urinary DPD/PYD levels days 10-21 post bleomycin: suppressed
EGFR
  EGF signaling through EGFR: no effect
[6]
  inhibition of LOX activity of wt and point mutant LOXL2: completely inhibited
Solubility (statement)
  solubility: more soluble
Human LOXL2 [7]
  LOXL2-induced stabilization of snail 1 protein: blocked
